Consider 3 molecules from patent publication US20230263710A1, “ORAL CARE AGENT” (OSAKA UNIVERSITY, priority 2020, published 2023).

This assay in a line: Lewis acidity measuring method (1): reaction rate constant of reaction between CoTPP and oxygen in the presence of a Lewis acid. The format is physicochemical.

Read-outs that look alike come from different tables or passages of the source.

On to `CCCC[N+](CCCC)(CCCC)CCCC.F[P-](F)(F)(F)(F)F` [tetrabutylammonium hexafluorophosphate], for which the “kcat (reaction rate constant of reaction between CoTPP and oxygen in the presence of a Lewis acid)” value (“kcat” for short) is listed as greater than 0.1 M^−2 s^−1.
For benzalkonium chloride, the “kcat” value (acetonitrile, saturated O2, room temperature) came out at 0.18 M^−2 s^−1.
For the molecule benzethonium chloride, the “kcat” value came to 0.24 M^−2 s^−1.
